Source: PubChem BioAssay (NCI)
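Each compound was tested at five concentrations against cells in 96-well plates for 48 hours. Abbreviation: GI50, concentration required for 50% inhibition of growth. Definition used: TGI = concentration required for complete inhibition of growth.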

Columns and labels:
Test in all cases: NCI-60 cell line screen, 48 h
[1] = system: A498 renal
[2] = system: A549 NSCLC
[3] = system: ACHN renal
[4] = system: BT-549 breast
[5] = system: CAKI-1 renal
[6] = system: CCRF-CEM leukemia
[7] = system: COLO 205 colon
[8] = system: DU-145 prostate
[9] = system: EKVX NSCLC
[10] = system: HCC-2998 colon
[11] = system: HCT-15 colon
[12] = system: HL-60(TB) leukemia
[13] = system: HOP-62 NSCLC
[14] = system: HOP-92 NSCLC
[15] = system: HS 578T breast
[16] = system: HT29 colon
[17] = system: IGROV1 ovarian
[18] = system: K-562 leukemia
[19] = system: KM12 colon
[20] = system: LOX IMVI melanoma
[21] = system: M14 melanoma
[22] = system: MALME-3M melanoma
[23] = system: MCF7 breast
[24] = system: MDA-MB-231 breast
[25] = system: MDA-MB-435
[26] = system: NCI-H226 lung
[27] = system: NCI-H23 lung
[28] = system: NCI-H460 lung
[29] = system: NCI-H522 lung
[30] = system: NCI/ADR-RES ovarian
[31] = system: OVCAR-3 ovarian
[32] = system: OVCAR-4 ovarian
[33] = system: OVCAR-5 ovarian
[34] = system: OVCAR-8 ovarian
[35] = system: PC-3 prostate
[36] = system: RPMI-8226 leukemia
[37] = system: RXF 393 renal
[38] = system: SF-268 CNS
[39] = system: SF-295 CNS
[40] = system: SK-MEL-2 melanoma
[41] = system: SK-MEL-28 melanoma
[42] = system: SK-MEL-5 melanoma
[43] = system: SK-OV-3 ovarian
[44] = system: SNB-19 CNS
[45] = system: SNB-75 CNS
[46] = system: SR leukemia
[47] = system: SW-620 colon
[48] = system: T-47D breast
[49] = system: TK-10 renal
[50] = system: U251 CNS
[51] = system: UACC-257 melanoma
[52] = system: UACC-62 melanoma
[53] = system: UO-31 renal
[54] = system: 786-0 renal
[55] = system: HCT-116 colon
[56] = system: MOLT-4 leukemia
[57] = system: SF-539 CNS
[58] = system: SN12C renal

Which results are given for `NC(CCCCO)C(=O)O` (configuration not stated)?
TGI [1]: > 100 µM; TGI [2]: > 100 µM; TGI [3]: > 100 µM; TGI [4]: > 100 µM; TGI [5]: > 100 µM; TGI [6]: > 100 µM; TGI [7]: > 100 µM; TGI [8]: > 100 µM; TGI [9]: > 100 µM; TGI [10]: > 100 µM; TGI [11]: > 100 µM; TGI [12]: > 100 µM; TGI [13]: > 100 µM; TGI [14]: > 100 µM; TGI [15]: > 100 µM; TGI [16]: > 100 µM; TGI [17]: > 100 µM; TGI [18]: > 100 µM; TGI [19]: > 100 µM; TGI [20]: > 100 µM; TGI [21]: > 100 µM; TGI [22]: > 100 µM; TGI [23]: > 100 µM; TGI [24]: > 100 µM; TGI [25]: > 100 µM; TGI [26]: > 100 µM; TGI [27]: > 100 µM; TGI [28]: > 100 µM; TGI [29]: > 100 µM; TGI [30]: > 100 µM; TGI [31]: > 100 µM; TGI [32]: > 100 µM; TGI [33]: > 100 µM; TGI [34]: > 100 µM; TGI [35]: > 100 µM; TGI [36]: > 100 µM; TGI [37]: > 100 µM; TGI [38]: > 100 µM; TGI [39]: > 100 µM; TGI [40]: > 100 µM; TGI [41]: > 100 µM; TGI [42]: > 100 µM; TGI [43]: > 100 µM; TGI [44]: > 100 µM; TGI [45]: > 100 µM; TGI [46]: > 100 µM; TGI [47]: > 100 µM; TGI [48]: > 100 µM; TGI [49]: > 100 µM; TGI [50]: > 100 µM; TGI [51]: > 100 µM; TGI [52]: > 100 µM; TGI [53]: > 100 µM

Which GI50 [54] does the source give for `CCN(Cc1cc(F)cc(F)c1)c1ccc(CO)c(Cl)c1` here?
Its GI50 is 12.5 µM.

And the TGI [54]?
The TGI was 27.2 µM.

And the GI50 [1]?
Its GI50 is 0.0343 µM.

What about the TGI [1] of the same molecule?
The TGI was 0.167 µM.

What about the GI50 [2] of the same molecule?
The GI50 was 2.36 µM.

What about the TGI [2] of the same molecule?
The TGI was 21.5 µM.

And the GI50 [3]?
Its GI50 is 13.3 µM.

And the TGI [3]?
Its TGI is 27 µM.

What about the GI50 [4] of the same molecule?
Its GI50 is 14.4 µM.

What about the TGI [4] of the same molecule?
Its TGI is 29.1 µM.

And the GI50 [5]?
The GI50 was 0.456 µM.

What about the TGI [5] of the same molecule?
Its TGI is 2.64 µM.

What about the GI50 [6] of the same molecule?
Its GI50 is 18.5 µM.

And the TGI [6]?
Its TGI is 66.5 µM.

What about the GI50 [7] of the same molecule?
The GI50 was 3 µM.

And the TGI [7]?
The TGI was 10.5 µM.

What about the GI50 [8] of the same molecule?
The GI50 was 15.4 µM.

What about the TGI [8] of the same molecule?
Its TGI is 34.2 µM.

And the GI50 [10]?
Its GI50 is 7.68 µM.

What about the TGI [10] of the same molecule?
Its TGI is 23.6 µM.

What about the GI50 [55] of the same molecule?
The GI50 was 0.0723 µM.

And the TGI [55]?
Its TGI is 8.31 µM.

What about the GI50 [11] of the same molecule?
The GI50 was 12.4 µM.

What about the TGI [11] of the same molecule?
The TGI was 29.9 µM.

And the GI50 [12]?
Its GI50 is 7.25 µM.

What about the TGI [12] of the same molecule?
Its TGI is 32.7 µM.

And the GI50 [13]?
The GI50 was 2.67 µM.

What about the TGI [13] of the same molecule?
Its TGI is 20.2 µM.

What about the GI50 [14] of the same molecule?
Its GI50 is 0.195 µM.

What about the TGI [14] of the same molecule?
Its TGI is 9.25 µM.

What about the GI50 [15] of the same molecule?
The GI50 was 16.4 µM.

What about the TGI [15] of the same molecule?
Its TGI is 44.7 µM.

And the GI50 [16]?
Its GI50 is 3.74 µM.

What about the TGI [16] of the same molecule?
Its TGI is 17.1 µM.

And the GI50 [17]?
Its GI50 is 0.0726 µM.

What about the TGI [17] of the same molecule?
Its TGI is 0.38 µM.

What about the GI50 [18] of the same molecule?
Its GI50 is 1.04 µM.

And the TGI [18]?
The TGI was 23 µM.

And the GI50 [19]?
Its GI50 is 13 µM.

What about the TGI [19] of the same molecule?
The TGI was 26.6 µM.

What about the GI50 [20] of the same molecule?
The GI50 was 14.4 µM.

And the TGI [20]?
The TGI was 28.2 µM.

And the GI50 [21]?
The GI50 was 15.3 µM.

What about the TGI [21] of the same molecule?
The TGI was 32.4 µM.

And the GI50 [22]?
The GI50 was 15 µM.

What about the TGI [22] of the same molecule?
Its TGI is 30.4 µM.

What about the GI50 [23] of the same molecule?
The GI50 was 0.208 µM.

And the TGI [23]?
Its TGI is 12.8 µM.

What about the GI50 [24] of the same molecule?
Its GI50 is 13 µM.

And the TGI [24]?
Its TGI is 26.7 µM.

What about the GI50 [25] of the same molecule?
The GI50 was 14.4 µM.

And the TGI [25]?
The TGI was 30 µM.

And the GI50 [56]?
Its GI50 is 18.3 µM.

What about the TGI [56] of the same molecule?
Its TGI is 51 µM.

What about the GI50 [26] of the same molecule?
The GI50 was 0.0801 µM.

What about the TGI [26] of the same molecule?
Its TGI is 0.214 µM.

And the GI50 [27]?
Its GI50 is 12.3 µM.

What about the TGI [27] of the same molecule?
Its TGI is 33.5 µM.

What about the GI50 [28] of the same molecule?
The GI50 was 0.205 µM.

And the TGI [28]?
Its TGI is 12.5 µM.

What about the GI50 [29] of the same molecule?
Its GI50 is 13.5 µM.

And the TGI [29]?
Its TGI is 29.4 µM.

What about the GI50 [30] of the same molecule?
Its GI50 is 14.8 µM.

And the TGI [30]?
The TGI was 38.4 µM.

And the GI50 [31]?
Its GI50 is 0.342 µM.

And the TGI [31]?
The TGI was 2.31 µM.

What about the GI50 [32] of the same molecule?
The GI50 was 0.168 µM.

And the TGI [32]?
Its TGI is 2.73 µM.

What about the GI50 [33] of the same molecule?
The GI50 was 0.0668 µM.

And the TGI [33]?
Its TGI is 0.287 µM.

What about the GI50 [34] of the same molecule?
Its GI50 is 13.4 µM.

And the TGI [34]?
Its TGI is 34.7 µM.

What about the GI50 [35] of the same molecule?
The GI50 was 12.5 µM.

What about the TGI [35] of the same molecule?
Its TGI is 27.1 µM.

What about the GI50 [36] of the same molecule?
The GI50 was 2.48 µM.

And the TGI [36]?
Its TGI is 26.1 µM.

And the GI50 [37]?
The GI50 was 2.54 µM.

What about the TGI [37] of the same molecule?
Its TGI is 17.5 µM.

And the GI50 [38]?
Its GI50 is 15.5 µM.

And the TGI [38]?
The TGI was 31.3 µM.

What about the GI50 [39] of the same molecule?
Its GI50 is 0.379 µM.

What about the TGI [39] of the same molecule?
Its TGI is 14.3 µM.

What about the GI50 [57] of the same molecule?
The GI50 was 15.1 µM.

What about the TGI [57] of the same molecule?
The TGI was 29.5 µM.

And the GI50 [40]?
The GI50 was 4.43 µM.

What about the TGI [40] of the same molecule?
Its TGI is 20.2 µM.

And the GI50 [41]?
Its GI50 is 13.7 µM.

What about the TGI [41] of the same molecule?
Its TGI is 26.8 µM.

And the GI50 [42]?
Its GI50 is 11.8 µM.

And the TGI [42]?
The TGI was 24.2 µM.

And the GI50 [43]?
The GI50 was 10.5 µM.

What about the TGI [43] of the same molecule?
The TGI was 25.7 µM.

What about the GI50 [58] of the same molecule?
The GI50 was 12.1 µM.

What about the TGI [58] of the same molecule?
Its TGI is 25.2 µM.

What about the GI50 [44] of the same molecule?
Its GI50 is 14.9 µM.

What about the TGI [44] of the same molecule?
The TGI was 41.2 µM.

And the GI50 [45]?
The GI50 was 8.49 µM.

And the TGI [45]?
Its TGI is 27.3 µM.

What about the GI50 [46] of the same molecule?
Its GI50 is 17.2 µM.

What about the TGI [46] of the same molecule?
The TGI was 43.6 µM.

And the GI50 [47]?
Its GI50 is 0.652 µM.

And the TGI [47]?
Its TGI is 18.6 µM.

And the GI50 [48]?
Its GI50 is 0.118 µM.

And the TGI [48]?
Its TGI is 0.782 µM.

And the GI50 [49]?
Its GI50 is 0.0425 µM.

What about the TGI [49] of the same molecule?
The TGI was 0.236 µM.

What about the GI50 [50] of the same molecule?
The GI50 was 0.992 µM.

And the TGI [50]?
The TGI was 16.4 µM.

What about the GI50 [51] of the same molecule?
The GI50 was 0.0986 µM.

What about the TGI [51] of the same molecule?
Its TGI is 0.429 µM.

And the GI50 [52]?
Its GI50 is 0.115 µM.

What about the TGI [52] of the same molecule?
Its TGI is 0.909 µM.

And the GI50 [53]?
The GI50 was 3.24 µM.

And the TGI [53]?
The TGI was 21.4 µM.
